These results are taken from US10962541B2 (priority 2014, dated 2021).

The subject of experiment [1] is RhoA. The format is cell-based.
For a further experiment, the system named is Rap1. In kind it is cell-based, monkey.
The subject of experiment [2] is RhoA. The format is cell-based, monkey.
Experiment [3] deals with polarized endothelial cells. The experiment in a line: Cell barrier function and viral infection in polarized endothelial cells. In kind it is cell-based. To be noted: unpublished results.
Another experiment addresses T1, Rac1 (Homo sapiens, UniProt P63000).
T1 construct: endogenous in cells; host or cells: HeLa (ATCC)
The experiment in a line: G-trap assay validation, active Rac1 in HeLa cells. The format is cell-based. Conditions: calpeptin-mediated activation of RhoA.

SMILES strings stand for the structures.

On to `COc1ccc(C2CC(c3ccccc3)=NN2c2ccc(S(N)(=O)=O)cc2)cc1` (stereo not shown) [CID2950007], for which the RhoA activity entry with RhoA [1] is “no effect on RhoA activity”.

Consider `COC(=O)[C@H](CCSC)NC(=O)c1ccc(NC[C@@H](N)CS)cc1-c1ccccc1` [FTI277], for which the “increase in active Rap1” value in the experiment with Rap1 is reported as around 2 fold.

`CCN(CC)CCCC(C)Nc1nc(C)cc(Nc2ccc3nc(C)cc(N)c3c2)n1` (stereo not shown) [NSC23766]: in the experiment on RhoA [2], the “RhoA-GTP above EGF stimulation alone” value was determined as 1.3 fold and the “RhoA-GTP increase above basal levels” value turned out to be 2 fold. In the experiment on RhoA [1], the RhoA activity result is recorded as “elevated relative to resting cells” and the “activation of RhoA relative to resting cells” value is reported as above 5 fold.

As to `C[C@@H](N)[C@H]1CC[C@H](C(=O)Nc2ccncc2)CC1` [Y27632], in experiment [3], the “loss of cell barrier function” value is given as “blocks the loss of cell barrier function” and the viral infection result is “limits viral infection”.

Consider `CCCC[C@@H](C=O)NC(=O)[C@H](CC(C)C)NC(=O)OCc1ccccc1` [calpeptin], for which, in the experiment on RhoA [2], the “increase in active RhoA” value is above 2 fold. In addition, the Rac1 activity result at Rac1 is on record as “concomitant decrease in Rac1 activity”.
